Source: ChEMBL document CHEMBL2074261, “Transcellular transport of organic anions across a double-transfected Madin-Darby canine kidney II cell monolayer expressing both human organic anion-transporting polypeptide (OATP2/SLC21A6) and Multidrug resistance-associated protein 2 (MRP2/ABCC2)” (J Biol Chem, 2002)

Biological target: Canalicular multispecific organic anion transporter 1/Solute carrier organic anion transporter family member 1B1 (Homo sapiens, UniProt Q92887+Q9Y6L6)
Experiment: TP_TRANSPORTER: transepithelial transport (basal to apical) in MRP2- and OATP-C-expressing MDCKII cells
Type: functional, cell-based
Conditions: dog, mdck-ii

Compound	Activity
C[C@H](CCC(=O)NCCS(=O)(=O)O)C1CC[C@H]2[C@@H]3CC[C@@H]4C[C@H](OS(=O)(=O)O)CC[C@]4(C)[C@H]3CC[C@]12C (some centres not stated)	substrate [+]
CC[C@H](C)C(=O)O[C@H]1C[C@H](O)C=C2C=C[C@H](C)[C@H](CC[C@@H](O)C[C@@H](O)CC(=O)O)[C@H]21 [PRAVASTATIN]	substrate [+]
